Source: patent US8575170B2, “Flurbiprofen analogs and methods of use in treating cancer” (The Regents of the Unversity of Colorado, a body corporate, priority 2010, dated 2013)

How the values were obtained:
Assay type in all cases: cell-based
H417 = experiment: MTT cell viability, H417; settings: Homo sapiens, NCI-H417, 96 h; SCLC lung cell line H417; 4 days incubation
Method: (§1) The ability of the flurbiprofen analog compounds of the invention to inhibit cancer cell growth and survival (viability) in a variety of cancer lines was examined in a standard MTT assay for cell viability, as detailed in Example 2.
(§2) The studies reported in Tables 1-3 above were carried out by incubating the cells in the test compound for four days, under standard cell-culture conditions, and measuring cell survival on day 5 (see Example 2).
(§3) Cell growth and survival following treatment with N—[(S)-2-Fluoro-α-methyl-4-biphenylacetyl]-[L-(4-phenylphenyl)alanine]-N-(2,2,6,6-tetramethyl-4-piperidinyl)amide (GCBH-110=B1031; (S)-Fmba-L-Bip-Atmp) were measured by a rapid colorimetric assay based on the tetrazolium salt MTT (3-(4,5-dimethylthiazol-2-yl)-2,5-diphenyl tetrazolium bromide) (Mosmann, J. Immunol. Methods 65: 55-63, 1983, with minor modifications).
(§4) Briefly, approximately 1,000-5,000 cancer cells from 15 different cancer cells lines were plated in 100 μL of growth medium in 96-well flat-bottomed microtiter plates. Cells were incubated overnight to allow recovery. Compounds to be tested were added to the cells in triplicate in a range of concentrations and the cells were incubated at 37° C., 5% CO2, with 100% humidity. Control cells were treated in the same way without antagonists. […] Absorbance was immediately determined using a scanning multiwell plate reader.

A549 = experiment: MTT cell viability, A549; settings: Homo sapiens, 96 h; Adenocarcinoma lung cell line A549; 4 days incubation
Method: as §1, §2, §3, §4

L36 = experiment: MTT cell viability, L36; settings: Pancreatic cancer cell, 96 h; Pancreatic cancer cells L36; 4 days incubation
Text: as §1
(§5) Similar results were obtained for the effect of the B1031 compound on the 14 pancreatic tumor cells lines shown in Table 3 below, where the dose dependent effect of the compound on survival of the pancreatic cancer cell lines is shown in FIG. 5.
as §2, §3
(§6) Briefly, approximately 1,000-5,000 cancer cells from 15 different cancer cells lines were plated in 100 μL of growth medium in 96-well flat-bottomed microtiter plates. Cells were incubated overnight to allow recovery. […] Absorbance was immediately determined using a scanning multiwell plate reader.

Aspc-1 = experiment: MTT cell viability, Aspc-1; settings: Homo sapiens, ASPC1, 96 h; Pancreatic cancer cells Aspc-1; 4 days incubation
Text: as §1, §5, §2, §3, §6

1483 = experiment: MTT cell viability, 1483; settings: Head and neck cancer cell line 1483
Method: as §1
(§7) A similar study was conducted on 14 […] cancer cell lines, identified in Table 2.
as §3
(§8) Briefly, approximately 1,000-5,000 cancer cells from 15 different cancer cells lines were plated in 100 μL of growth medium in 96-well flat-bottomed microtiter plates. Cells were incubated overnight to allow recovery. Compounds to be tested were added to the cells in triplicate in a range of concentrations and the cells were incubated at 37° C., 5% CO2, with 100% humidity. Control cells were treated in the same way without antagonists. […] Plates were incubated for 4 days, allowing sufficient time for cell replication and compound-induced cell death to occur. […] Absorbance was immediately determined using a scanning multiwell plate reader. […]

1586 = experiment: MTT cell viability, 1586; settings: Head and neck cancer cell line 1586
Method: as §1, §7, §3, §8

H719 = experiment: MTT cell viability, H719; settings: 96 h; SCLC lung cell line H719; 4 days incubation
Method: as §1, §2, §3, §4

[1] = system: 15 different cancer cells lines; experiment: MTT cell viability, 15 different cancer cell lines (FIG. 1); settings: 96 h, several cancer cell lines, 4 days, read-out: concentrations causing 50% cell death
Method: as §3
Briefly, approximately 1,000-5,000 cancer cells from 15 different cancer cells lines were plated in 100 μL of growth medium in 96-well flat-bottomed microtiter plates. Cells were incubated overnight to allow recovery. Compounds to be tested were added to the cells in triplicate in a range of concentrations and the cells were incubated at 37° C., 5% CO2, with 100% humidity. Control cells were treated in the same way without antagonists. […] Plates were incubated for 4 days, allowing sufficient time for cell replication and compound-induced cell death to occur. On day 5, 25 μL of a 2 mg/mL solution of MTT (Sigma) dissolved in RMPI-1640 was added to each well. The plate was incubated for 4 h at 37° C. The supernatant liquid was removed and the blue formazan complex was dissolved by adding 100 μL of 0.02 N HCl in 75% isopropanol to all wells. Absorbance was immediately determined using a scanning multiwell plate reader.

H446 = experiment: MTT cell viability, H446; settings: Homo sapiens, NCI-H446, 96 h; SCLC lung cell line H446; 4 days incubation
Method: as §1, §2, §3, §4

H3225a = experiment: MTT cell viability, H3225a; settings: 96 h; Adenocarcinoma lung cell line H3225a; 4 days incubation
Method: as §1, §2, §3, §4

H290 = experiment: MTT cell viability, H290; settings: NCI-H290, 96 h; Mesothelioma lung cell line H290; 4 days incubation
Method: as §1, §2, §3, §4

UMSCC22B = experiment: MTT cell viability, UMSCC22B; settings: Homo sapiens; Head and neck cancer cell line UMSCC22B
Method: as §1, §7, §3, §8

H513 = experiment: MTT cell viability, H513; settings: 96 h; Mesothelioma lung cell line H513; 4 days incubation
Method: as §1, §2, §3, §4

[2] = system: U251 malignant glioma cells; experiment: Inhibition of U251 malignant glioma cells; settings: Homo sapiens, U-251; U251 brain cancer cell line, FIG. 6B
Method: FIGS. 6A and 6B show the loss in cell viability in HT-29 colon cancer cells, in response to increasing concentrations of GH 502 (GCBH 118) (FIG. 6A), and the effect of various treatments, including increasing concentration of GH501 (GCBH 110) on U251 malignant glioma cells and BTIC EF12 brain tumor initiating stem cells (FIG. 6B).
The study shown in FIG. 6A examined the effect of GCBH-118 (GH502) on an HT-29 colon cancer cell, showing an IC50 value of about 1 μM. […] The graph indicates an IC50 value for the B1031 compound against the U251 brain cancer cell line of between 2 and 10 μM.

For `C[C@H](C(=O)N[C@@H](Cc1ccc(-c2ccccc2)cc1)C(=O)NC1CC(C)(C)NC(C)(C)C1)c1ccc(-c2ccccc2)c(F)c1` [GCBH-110, N—[(S)-2-Fluoro-α-methyl-4-biphenylacetyl]-[L-(4-phenylphenyl)alanine]-N-(2,2,6,6-tetramethyl-4-piperidinyl)amide], the IC50 (H417) was 1400 nM, the IC50 (A549) was 550 nM and the IC50 (L36) was 600 nM. It also gave an IC50 (Aspc-1) of 500 nM, an IC50 1483 of 300 nM and an IC50 1586 of 1500 nM. For the same molecule, the IC50 (H719) was 1080 nM, the IC50 [1] was 100 to 1000 nM and the IC50 (H446) was 440 nM. It also gave an IC50 (H3225a) of 450 nM, an IC50 (H290) of 1300 nM and an IC50 (UMSCC22B) of 300 nM. For the same molecule, the IC50 (H513) was 1800 nM and the IC50 [2] was 2000 to 10000 nM.
